# Read-outs that look alike come from different tables or passages of the source.
# Tests used:
# [1] = system: Mycobacterium smegmatis SG 987; test: MIC by broth micro dilution method in Mueller-Hinton broth (NCCLS); type: cell-based; settings: Mycolicibacterium smegmatis
# Experimental: (§1) Determination of the in vitro inhibitory activity of the compounds of the invention against mycobacteria.
# (§2) The antibacterial activities of the compounds against Mycobacterium smegmatis SG 987, M. aurum SB66, M. vaccae IMET 10670 and M. fortuitum B were tested by determination of minimal inhibitory concentrations (MIC) by the broth micro dilution method in Mueller-Hinton broth (Difco) according to the NCCLS guidelines [National Committee for Clinical Laboratory Standards: Methods for dilution antimicrobial susceptibility tests for bacteria that grow aerobically; 5th Ed.; Villanova, Ed.; Approved standard Document M7-A5. NCCLS, (2000)].
# M. fortuitum B = test: as above; type: cell-based; settings: Mycolicibacterium fortuitum, read-out: M. fortuitum MIC
# Experimental: as §1, §2
# M. vaccae IMET 10670 = test: as above; type: cell-based; settings: Mycolicibacterium vaccae
# Experimental: as §1, §2
# M. tuberculosis H37Rv [2] = test: resazurin reduction assay (MIC96), Alamar Blue method; type: cell-based; settings: Mycobacterium tuberculosis, read-out: minimal inhibitory concentrations (MIC) M. tuberculosis H37Rv
# Experimental: Activity against M. tuberculosis H37Rv was determined by the resazurin reduction assay (MIC96) too. The method was described in detail in: P. Quillardet, O. Huisman, R. D'Ari, M. Hofnung, Proc. Natl. Acad. Sci. USA, 1982, 79, 5971-5; J. C. Palomino, A. Martin, M. Camacho, H. Guerra, J. Swings, F. Portaels, Antimicrob. Agents Chemother., 2002, 46, 2720-2.
# M. tuberculosis H37Rv [3] = test: MIC and MBC, classical method (liquid Shkolnikova medium, Lowenstein-Jensen medium); type: cell-based; settings: Mycobacterium tuberculosis; for MIC: 336 h
# [4] = SG987, broth micro dilution, Mueller-Hinton broth, read-out: M. smegmatis MIC
# [5] = broth micro dilution, Mueller-Hinton broth
# [6] = IMET10670, broth micro dilution, Mueller-Hinton broth, read-out: M. vaccae MIC
# [7] = strain H37Rv, liquid Shkolnikova medium, 14 days at 37° C., read-out: MIC
# [8] = strain H37Rv, solid drug free Lowenstein-Jensen medium, 21-28 days, read-out: MBC
compound,measurement,setting,value
"O=c1nc(N2CCN(c3ccc(Cl)cc3)CC2)sc2c([N+](=O)[O-])cc([N+](=O)[O-])cc12 [Compound 1, 2-[4-(4-Chlorophenyl)piperazin-1-yl]-6,8-dinitro-4H-1,3-benzothiazin-4-one]",melting point,,279 to 281 °C
same,MIC,"[1]; SG987, read-out: M. smegmatis MIC",780 ng/mL
same,MIC,M. fortuitum B,780 ng/mL
same,MIC,"M. vaccae IMET 10670; IMET10670, read-out: M. vaccae MIC",6.2 ng/mL
"Cc1ccc(Cl)cc1N1CCN(c2nc(=O)c3cc(C(F)(F)F)cc([N+](=O)[O-])c3s2)CC1 [Compound 2, 2-[4-(5-chloro-2-methylphenyl)piperazin-1-yl]-8-nitro-6-(trifluoromethyl)-4H-1,3-benzothiazin-4-one]",melting point,,158 to 161 °C
same,MIC,[1]; [4],50 ng/mL
same,MIC,M. fortuitum B; [5],31 ng/mL
same,MIC,M. vaccae IMET 10670; [6],8 ng/mL
"O=c1nc(N2CCN(c3cccc(C(F)(F)F)c3)CC2)sc2c([N+](=O)[O-])cc(C(F)(F)F)cc12 [Compound 3, 8-Nitro-6-(trifluoromethyl)-2-{4-[3-(trifluoromethyl)phenyl]piperazin-1-yl}-4H-1,3-benzothiazin-4-one]",melting point,,201 to 203 °C
same,MIC,[1]; [4],40 ng/mL
same,MIC,M. fortuitum B; [5],3.1 ng/mL
same,MIC,M. vaccae IMET 10670; [6],3.1 ng/mL
"CCN(Cc1ccccc1)c1nc(=O)c2cc(C(F)(F)F)cc([N+](=O)[O-])c2s1 [Compound 4, 2-[Benzyl(ethyl)amino]-8-nitro-6-(trifluoromethyl)-4H-1,3-benzothiazin-4-one]",MIC,M. tuberculosis H37Rv [2],2 ng/mL
same,melting point,,94 to 97 °C
same,MIC,[1]; [4],6.2 ng/mL
same,MIC,M. fortuitum B; [5],6.2 ng/mL
same,MIC,M. vaccae IMET 10670; [6],0.8 ng/mL
"CN(Cc1ccccc1)c1nc(=O)c2cc(C(F)(F)F)cc([N+](=O)[O-])c2s1 [Compound 5, 2-[Benzyl(methyl)amino]-8-nitro-6-(trifluoromethyl)-4H-1,3-benzothiazin-4-one]",MIC,M. tuberculosis H37Rv [2],3 ng/mL
same,melting point,,120 to 124 °C
same,MIC,[1]; [4],15.6 ng/mL
same,MIC,M. fortuitum B; [5],15.6 ng/mL
same,MIC,M. vaccae IMET 10670; [6],0.5 ng/mL
same,MBC,M. tuberculosis H37Rv [3]; H37RV,3120 ng/mL
same,MIC,M. tuberculosis H37Rv [3]; H37RV,1560 ng/mL
"O=c1nc(N2CCN(c3ccccc3F)CC2)sc2c([N+](=O)[O-])cc(C(F)(F)F)cc12 [Compound 6, 2-[4-(2-Fluorophenyl)piperazin-1-yl]-8-nitro-6-(trifluoromethyl)-4H-1,3-benzothiazin-4-one]",melting point,,164 to 168 °C
same,MIC,[1]; [4],5 ng/mL
same,MIC,M. fortuitum B; [5],5 ng/mL
same,MIC,M. vaccae IMET 10670; [6],5 ng/mL
"O=c1nc(N2CCN(Cc3ccccc3)CC2)sc2c([N+](=O)[O-])cc(C(F)(F)F)cc12 [Compound 7, 2-(4-Benzylpiperazin-1-yl)-8-nitro-6-(trifluoromethyl)-4H-1,3-benzothiazin-4-one]",melting point,,161 to 163 °C
same,MIC,[1]; [4],50 ng/mL
same,MIC,M. fortuitum B; [5],50 ng/mL
same,MIC,M. vaccae IMET 10670; [6],50 ng/mL
"O=c1nc(NCc2ccccc2)sc2c([N+](=O)[O-])cc(C(F)(F)F)cc12 [Compound 8, 2-(Benzylamino)-8-nitro-6-(trifluoromethyl)-4H-1,3-benzothiazin-4-one]",MIC,M. tuberculosis H37Rv [2],50 ng/mL
same,melting point,,192 to 194 °C
same,MIC,[1]; [4],0.78 ng/mL
same,MIC,M. fortuitum B; [5],0.78 ng/mL
same,MIC,M. vaccae IMET 10670; [6],< 0.0121 ng/mL
same,MBC,M. tuberculosis H37Rv [3]; H37RV,1560 ng/mL
same,MIC,M. tuberculosis H37Rv [3]; H37RV,1560 ng/mL
"C[C@H](c1ccccc1)N(C)c1nc(=O)c2cc(C(F)(F)F)cc([N+](=O)[O-])c2s1 [Compound 9, 2-{Methyl[(1R)-1-phenylethyl]amino}-8-nitro-6-(trifluoromethyl)-4H-1,3-benzothiazin-4-one]",MIC,M. tuberculosis H37Rv [2],0.4 ng/mL
same,melting point,,110 to 113 °C
same,MIC,[1]; [4],< 0.0121 ng/mL
same,MIC,M. fortuitum B; [5],< 0.0121 ng/mL
same,MIC,M. vaccae IMET 10670; [6],< 0.0121 ng/mL
"CN(Cc1ccccc1)c1nc(=O)c2cc(Cl)cc([N+](=O)[O-])c2s1 [Compound 10, 2-[Benzyl(methyl)amino]-6-chloro-8-nitro-4H-1,3-benzothiazin-4-one]",MIC,M. tuberculosis H37Rv [2],25 ng/mL
same,melting point,,138 to 141 °C
same,MIC,[1]; [4],6.2 ng/mL
same,MIC,M. fortuitum B; [5],1.56 ng/mL
same,MIC,M. vaccae IMET 10670; [6],0.31 ng/mL
same,MIC,M. tuberculosis H37Rv [3]; [7],< 390 ng/mL
same,MBC,M. tuberculosis H37Rv [3]; [8],780 ng/mL
"NNC(=O)c1ccncc1 [Isoniazid (INH), Isoniazid, reference compound]",MIC,M. tuberculosis H37Rv [2],125 ng/mL
same,MIC,M. tuberculosis H37Rv [3]; [7],780 ng/mL
same,MBC,M. tuberculosis H37Rv [3]; [8],1560 ng/mL
